Values of other authors in article PMC6270026, “Antibacterial and Herbicidal Activity of Ring-Substituted 2-Hydroxynaphthalene-1-carboxanilides” (Molecules, 2013).
Converted amounts (≈) assume the structure as drawn.

Tests used:
[1] = set-up: method as in PMID 23884130; conditions: 3-hydroxynaphthalene-2-carboxanilide series; cited from earlier work
[2] = test system: Staphylococcus aureus ATCC 29213; set-up: method as in PMID 23884130; conditions: previous study; cited from earlier work
[3] = test system: methicillin-resistant Staphylococcus aureus SA 630; set-up: method as in PMID 23884130; conditions: previous study, all the MRSA strains; cited from earlier work
[4] = test system: methicillin-resistant Staphylococcus aureus (MRSA) 63718; set-up: method as in PMID 23884130; conditions: previous study, all the MRSA strains; cited from earlier work
[5] = test system: methicillin-resistant Staphylococcus aureus SA 3202; set-up: method as in PMID 23884130; conditions: previous study, all the MRSA strains; cited from earlier work
[6] = test system: human monocytic leukemia THP-1 cells; conditions: assessed in this line formerly; cited from earlier work

COc1ccccc1NC(=O)c1cc2ccccc2cc1O [3-hydroxy-N-(2-methoxyphenyl)naphthalene-2-carboxamide]
log k [1]: 0.69
MIC against S. aureus [2]: 55.0 µmol/L (≈ 16.1 µg/mL)
MIC against MRSA strains (SA 630) [3]: 55.0 µmol/L (≈ 16.1 µg/mL)
MIC against MRSA strains (MRSA 63718) [4]: 55.0 µmol/L (≈ 16.1 µg/mL)
MIC against MRSA strains (SA 3202) [5]: 55.0 µmol/L (≈ 16.1 µg/mL)

CC[C@@]1(O)C(=O)OCc2c1cc1n(c2=O)Cc2cc3ccccc3nc2-1 [camptothecin]
LD50 [6]: 0.16 ± 0.07 µmol/L
